# Laboratory results as given in patent publication US20080274913A1, “Multiplex Array Useful for Assaying Protein-Protein Interaction” (priority 2005, published 2008).
# Assays:
# ADRA2A = target: T1, ADRA2A (Homo sapiens, UniProt P08913); settings: antagonist experiments, FIGS. 11F to 11J
# T1 sequence (P08913 1-465): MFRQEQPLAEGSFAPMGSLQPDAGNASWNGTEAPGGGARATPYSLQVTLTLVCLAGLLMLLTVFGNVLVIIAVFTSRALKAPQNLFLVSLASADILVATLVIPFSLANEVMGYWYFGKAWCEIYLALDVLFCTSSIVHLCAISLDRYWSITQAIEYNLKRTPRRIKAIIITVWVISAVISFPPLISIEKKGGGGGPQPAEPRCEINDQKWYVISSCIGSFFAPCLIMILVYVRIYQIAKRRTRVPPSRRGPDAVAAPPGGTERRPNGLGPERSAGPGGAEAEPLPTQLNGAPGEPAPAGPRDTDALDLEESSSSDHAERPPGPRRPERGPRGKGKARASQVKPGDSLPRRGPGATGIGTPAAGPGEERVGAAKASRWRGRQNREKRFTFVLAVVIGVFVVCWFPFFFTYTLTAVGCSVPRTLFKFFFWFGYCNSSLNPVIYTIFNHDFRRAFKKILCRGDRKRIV
# ADRA2C = target: T2, ADRA2C (Homo sapiens, UniProt P18825); settings: antagonist experiments, FIGS. 11F to 11J
# T2 sequence (P18825 1-462): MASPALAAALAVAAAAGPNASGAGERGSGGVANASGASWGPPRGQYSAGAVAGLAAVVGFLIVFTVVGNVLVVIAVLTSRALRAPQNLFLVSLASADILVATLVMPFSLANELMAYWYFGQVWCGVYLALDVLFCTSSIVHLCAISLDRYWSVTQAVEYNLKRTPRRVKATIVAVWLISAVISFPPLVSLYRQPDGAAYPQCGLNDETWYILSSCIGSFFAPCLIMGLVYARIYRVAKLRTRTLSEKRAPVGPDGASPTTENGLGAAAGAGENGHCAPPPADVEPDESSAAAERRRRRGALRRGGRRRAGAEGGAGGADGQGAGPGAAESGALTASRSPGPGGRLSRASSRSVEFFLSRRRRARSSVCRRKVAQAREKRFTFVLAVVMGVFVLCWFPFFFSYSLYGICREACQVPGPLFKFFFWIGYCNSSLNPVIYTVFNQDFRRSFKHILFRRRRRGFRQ
# ADRA2B = target: T3, ADRA2B (Homo sapiens, UniProt P18089); settings: antagonist experiments, FIGS. 11F to 11J
# T3 sequence (P18089 1-450): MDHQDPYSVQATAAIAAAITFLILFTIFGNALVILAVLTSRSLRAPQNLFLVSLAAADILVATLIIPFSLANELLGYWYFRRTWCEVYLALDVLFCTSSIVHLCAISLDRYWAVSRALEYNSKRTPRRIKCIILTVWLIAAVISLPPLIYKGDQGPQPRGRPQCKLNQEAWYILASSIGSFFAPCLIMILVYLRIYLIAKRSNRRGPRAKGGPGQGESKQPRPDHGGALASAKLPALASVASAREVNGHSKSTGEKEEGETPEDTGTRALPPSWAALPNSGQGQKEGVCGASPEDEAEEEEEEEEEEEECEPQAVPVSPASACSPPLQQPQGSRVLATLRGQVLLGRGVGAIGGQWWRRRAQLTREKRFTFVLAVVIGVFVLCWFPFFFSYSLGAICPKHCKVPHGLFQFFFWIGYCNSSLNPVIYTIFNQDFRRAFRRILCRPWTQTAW
# ADRB1 = ADRB1 (Homo sapiens, UniProt P08588); settings: FIG. 11F
# Chain of ADRB1 (P08588 whole entry): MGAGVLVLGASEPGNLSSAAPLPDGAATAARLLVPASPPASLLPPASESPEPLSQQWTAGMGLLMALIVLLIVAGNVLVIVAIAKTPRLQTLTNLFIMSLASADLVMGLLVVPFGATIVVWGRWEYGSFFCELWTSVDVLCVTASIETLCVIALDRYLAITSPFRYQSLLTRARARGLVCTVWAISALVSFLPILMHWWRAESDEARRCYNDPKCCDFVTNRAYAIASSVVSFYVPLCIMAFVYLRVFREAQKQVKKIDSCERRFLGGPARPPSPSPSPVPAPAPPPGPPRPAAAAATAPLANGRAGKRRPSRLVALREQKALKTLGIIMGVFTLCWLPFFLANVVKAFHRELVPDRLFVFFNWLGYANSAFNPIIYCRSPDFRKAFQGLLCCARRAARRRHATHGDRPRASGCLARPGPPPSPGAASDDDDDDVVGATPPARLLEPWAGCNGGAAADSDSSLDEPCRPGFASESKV
compound,measurement,setting,value
C=CCc1ccccc1OCC(O)CNC(C)C (stereo not shown) [alprenolol],inhibition of receptor response by antagonist,ADRA2A,only a modest inhibitory effect at the highest concentrations tested
same,inhibition of receptor response by antagonist,ADRA2C,only a modest inhibitory effect at the highest concentrations tested
same,inhibition of receptor response by antagonist,ADRA2B,only a modest inhibitory effect at the highest concentrations tested
same,inhibition of receptor response by antagonist,ADRB1,markedly inhibited
